Test results published in patent US10316020B2, “Indane derivatives and the use thereof as soluble guanylate cyclase activators” (NOVARTIS AG, priority 2015, dated 2019).

molecular target: T1, soluble guanylate cyclase (GUCYA3/GUCYB3) overexpressed in CHO cells (Homo sapiens, UniProt Q02108+Q02153); assay: CHO cellular assay (cGMP production, HTRF); format: cell-based; settings: CHO GUCY clone 8E10; assay buffer with 1 mM IBMX, 20 uM ODQ; 1 h at room temperature; cGMP HTRF; quantification limit 0.0005 μM; read-out: Mean EC50
T1 construct: expressed in transfected cells
T1 sequence (Q02108 1-690 partner): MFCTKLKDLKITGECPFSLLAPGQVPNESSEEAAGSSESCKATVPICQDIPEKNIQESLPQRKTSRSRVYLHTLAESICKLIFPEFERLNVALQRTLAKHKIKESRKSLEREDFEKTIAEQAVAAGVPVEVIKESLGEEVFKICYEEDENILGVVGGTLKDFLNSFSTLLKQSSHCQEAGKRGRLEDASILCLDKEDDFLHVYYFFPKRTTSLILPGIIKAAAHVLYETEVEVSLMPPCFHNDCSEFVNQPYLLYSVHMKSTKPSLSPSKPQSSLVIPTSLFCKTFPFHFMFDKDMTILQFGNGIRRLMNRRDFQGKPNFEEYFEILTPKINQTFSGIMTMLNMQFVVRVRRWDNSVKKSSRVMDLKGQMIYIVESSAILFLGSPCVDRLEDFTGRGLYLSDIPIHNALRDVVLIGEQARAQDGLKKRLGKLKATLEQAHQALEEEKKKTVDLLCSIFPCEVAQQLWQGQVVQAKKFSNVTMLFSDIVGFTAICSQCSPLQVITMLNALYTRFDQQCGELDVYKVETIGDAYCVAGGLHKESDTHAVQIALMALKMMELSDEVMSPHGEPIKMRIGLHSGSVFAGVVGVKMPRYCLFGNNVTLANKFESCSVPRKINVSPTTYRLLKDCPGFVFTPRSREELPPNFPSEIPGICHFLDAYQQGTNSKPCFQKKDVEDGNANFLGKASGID
T1 sequence (Q02153 1-619): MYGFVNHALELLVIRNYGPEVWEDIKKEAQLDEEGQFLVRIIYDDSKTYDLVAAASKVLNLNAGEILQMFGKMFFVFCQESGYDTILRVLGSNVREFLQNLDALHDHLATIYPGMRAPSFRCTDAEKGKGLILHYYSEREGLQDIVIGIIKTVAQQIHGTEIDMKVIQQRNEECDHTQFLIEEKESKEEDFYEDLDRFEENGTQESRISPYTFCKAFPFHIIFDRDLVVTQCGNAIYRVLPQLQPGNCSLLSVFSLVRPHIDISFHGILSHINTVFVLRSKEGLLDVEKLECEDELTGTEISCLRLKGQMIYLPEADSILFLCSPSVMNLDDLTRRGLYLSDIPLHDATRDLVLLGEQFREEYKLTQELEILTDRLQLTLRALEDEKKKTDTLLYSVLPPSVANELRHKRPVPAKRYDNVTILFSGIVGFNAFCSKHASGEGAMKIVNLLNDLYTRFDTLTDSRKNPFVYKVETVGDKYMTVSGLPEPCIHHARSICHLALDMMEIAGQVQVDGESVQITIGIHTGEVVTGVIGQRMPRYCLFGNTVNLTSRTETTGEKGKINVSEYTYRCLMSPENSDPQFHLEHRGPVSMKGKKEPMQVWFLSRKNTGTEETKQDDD
Description: Chinese hamster ovary (CHO) cells overexpressing soluble guanylate cyclase were generated to test the effect of sGC activators in a cellular context. Human cDNAs for GUCYA3 (RefSeq: NM_000856.3) and GUCYB3 (RefSeq: NM_000857.1) were amplified by PCR from a HUVEC (Human Umbilical Vein Endothelial Cells) cDNA library and cloned into mammalian expression vectors. CHO K1 cells (ATCC CCL-61) were transfected using Lipofectamine 2000 following manufacturer's instructions and stably expressing clones were identified by antibiotic selection. CHO GUCY clone 8E10 was used for subsequent experiments.
Cells were seeded at a density of 3000 cells/well in white 384-well proxyplates (Perkin Elmer) and incubated overnight, then the medium was removed and cells were washed with assay buffer (HBSS, 0.1% BSA, 1 mM IBMX, 20 uM ODQ). sGC activators were serially diluted in DMSO, then diluted in assay buffer prior to adding to cells (10 ul/well, final DMSO concentration 0.5%). Cells were incubated with compounds for 1 h at room temperature, then assayed for cGMP production using Cisbio cGMP HTRF kit (62GM2PEC) according to manufacturer's instructions.
The EC50s are calculated based on the amount of cGMP interpolated from the standard curve, using a 4-parameter sigmoidal dose-response.
Compounds of invention are active on sGC activation. Data in Table 1 collected using the assay of Biological Example 1.

EC50 | SMILES
0.11 µM | CCc1cc(NC2CCc3cccc(-c4cccc(-n5ncc(C(=O)O)c5OC)c4)c32)ccc1C1CCN(C(=O)[C@H](C)O)CC1 (single isomer, unassigned; (-)) [Example 4B]
0.031 µM | CCc1cc(NC2CCc3cccc(-c4cccc(-n5ncc(C(=O)O)c5N)n4)c32)ccc1C1CCN(C(=O)C2CC2)CC1 (single isomer, unassigned; (-)) [Example 18B, (−)-5-Amino-1-(6-(3-((4-(1-(cyclopropanecarbonyl)piperidin-4-yl)-3-ethylphenyl)amino)-2,3-dihydro-1H-inden-4-yl)pyridin-2-yl)-1H-pyrazole-4-carboxylic acid]
0.0404 µM | CCc1nc(NC2CCc3cccc(-c4cccc(-n5ncc(C(=O)O)c5NC)c4)c32)ccc1C1=CCN(C(=O)C2CC2)CC1 (single isomer, unassigned; (-)) [Example 22B, (−)-1-(3-(3-((1′-(Cyclopropanecarbonyl)-2-ethyl-1′,2′,3′,6′-tetrahydro-[3,4′-bipyridin]-6-yl)amino)-2,3-dihydro-1H-inden-4-yl)phenyl)-5-(methylamino)-1H-pyrazole-4-carboxylic acid]
< 0.0005 µM | CCc1cc(NC2CCc3cccc(-c4ccc(OC)c(-n5ncc(C(=O)O)c5OC)c4)c32)ccc1C1CCN(C(=O)C2CC2)CC1 (single isomer, unassigned; (+)) [Example 8A, (+)-1-(5-(3-((4-(1-(Cyclopropanecarbonyl)piperidin-4-yl)-3-ethylphenyl)amino)-2,3-dihydro-1H-inden-4-yl)-2-methoxyphenyl)-5-methoxy-1H-pyrazole-4-carboxylic acid]
< 0.0005 µM | CCc1cc(C[C@H]2CCc3cccc(-c4cccc(-n5ncc(C(=O)O)c5N)c4)c32)ccc1C1CCN(C(=O)C2CC2)CC1 [Example 20, (+)-(R)-5-Amino-1-(3-(3-(4-(1-(cyclopropanecarbonyl)piperidin-4-yl)-3-ethylbenzyl)-2,3-dihydro-1H-inden-4-yl)phenyl)-1H-pyrazole-4-carboxylic acid]
0.004 µM | CCc1cc(NC2CCc3cccc(-c4cccc(-n5ncc(C(=O)O)c5N)c4)c32)ccc1C1CCN(C(=O)C2CC2)CC1 (single isomer, unassigned; (+)) [Example 9A, (+)-5-Amino-1-(3-(3-((4-(1-(cyclopropanecarbonyl)piperidin-4-yl)-3-ethylphenyl)amino)-2,3-dihydro-1H-inden-4-yl)phenyl)-1H-pyrazole-4-carboxylic acid]
< 0.0005 µM | CCc1cc(NC2CCc3cccc(-c4ccc(C)c(-n5ncc(C(=O)O)c5OC)c4)c32)ccc1C1CCN(C(=O)C2CC2)CC1 (single isomer, unassigned; (+)) [Example 7A, (+)-1-(5-(3-((4-(1-(Cyclopropanecarbonyl)piperidin-4-yl)-3-ethylphenyl)amino)-2,3-dihydro-1H-inden-4-yl)-2-methylphenyl)-5-methoxy-1H-pyrazole-4-carboxylic acid]
0.034 µM | CCc1cc(C[C@@H]2CCc3cccc(-c4cccc(-n5ncc(C(=O)O)c5OC)c4)c32)ccc1C1CCN(C(=O)[C@H](C)O)CC1 [Example 2B, (−)-1-(3-((S)-3-(3-Ethyl-4-(1-((S)-2-hydroxypropanoyl)piperidin-4-yl)benzyl)-2,3-dihydro-1H-inden-4-yl)phenyl)-5-methoxy-1H-pyrazole-4-carboxylic acid]
0.002 µM | CCc1cc(NC2CCc3cccc(-c4ccc(C)c(-n5ncc(C(=O)O)c5OC)c4)c32)ccc1C1CCN(C(=O)C2CC2)CC1 (single isomer, unassigned; (-)) [Example 7B, (−)-1-(5-(3-((4-(1-(Cyclopropanecarbonyl)piperidin-4-yl)-3-ethylphenyl)amino)-2,3-dihydro-1H-inden-4-yl)-2-methylphenyl)-5-methoxy-1H-pyrazole-4-carboxylic acid]
0.086 µM | CCc1cc(NC2CCc3cccc(-c4ccc(OC)c(-n5ncc(C(=O)O)c5OC)c4)c32)ccc1C1CCN(C(=O)C2CC2)CC1 (single isomer, unassigned; (-)) [Example 8B, (−)-1-(5-(3-((4-(1-(Cyclopropanecarbonyl)piperidin-4-yl)-3-ethylphenyl)amino)-2,3-dihydro-1H-inden-4-yl)-2-methoxyphenyl)-5-methoxy-1H-pyrazole-4-carboxylic acid]
0.0035 µM | CCc1nc(NC2CCc3cccc(-c4cccc(-n5ncc(C(=O)O)c5OC)n4)c32)ccc1C1=CCN(C(=O)[C@H](C)O)CC1 (single isomer, unassigned) [Example 17B, 1-(6-((S or R)-3-((2-ethyl-1′-((S)-2-hydroxypropanoyl)-1′,2′,3′,6′-tetrahydro-[3,4′-bipyridin]-6-yl)amino)-2,3-dihydro-1H-inden-4-yl)pyridin-2-yl)-5-methoxy-1H-pyrazole-4-carboxylic acid]
0.003 µM | CCc1cc(O[C@H]2CCc3cccc(-c4cccc(-n5ncc(C(=O)O)c5N)n4)c32)ccc1C1CCN(C(=O)C2CC2)CC1 [Example 19, (S)-5-Amino-1-(6-(3-(4-(1-(cyclopropanecarbonyl)piperidin-4-yl)-3-ethylphenoxy)-2,3-dihydro-1H-inden-4-yl)pyridin-2-yl)-1H-pyrazole-4-carboxylic acid]
0.036 µM | CCc1nc(NC2CCc3cccc(-c4cccc(-n5ncc(C(=O)O)c5OC)c4)c32)ccc1C1=CCN(C(=O)[C@H](C)O)CC1 (single isomer, unassigned) [Example 11A, 1-(3-((S or R)-3-((2-Ethyl-1′-((S)-2-hydroxypropanoyl)-1′,2′,3′,6′-tetrahydro-[3,4′-bipyridin]-6-yl)amino)-2,3-dihydro-1H-inden-4-yl)phenyl)-5-methoxy-1H-pyrazole-4-carboxylic acid]
0.029 µM | CCc1cc(N[C@@H]2CCc3cccc(-c4cccc(-n5ncc(C(=O)O)c5OC)c4)c32)ccc1C1CCN(C(=O)C2CC2)CC1 [Example 3B, (−)-(R)-1-(3-(3-((4-(1-(Cyclopropanecarbonyl)piperidin-4-yl)-3-ethylphenyl)amino)-2,3-dihydro-1H-inden-4-yl)phenyl)-5-methoxy-1H-pyrazole-4-carboxylic acid]
< 0.0005 µM | CCc1cc(C[C@H]2CCc3cccc(-c4cccc(-n5ncc(C(=O)O)c5NC)c4)c32)ccc1C1CCN(C(=O)C2CC2)CC1 [Example 21, (R)-1-(3-(3-(4-(1-(cyclopropanecarbonyl)piperidin-4-yl)-3-ethylbenzyl)-2,3-dihydro-1H-inden-4-yl)phenyl)-5-(methylamino)-1H-pyrazole-4-carboxylic acid]
< 0.0005 µM | CCc1nc(NC2CCc3cccc(-c4cccc(-n5ncc(C(=O)O)c5OC)n4)c32)ccc1C1=CCN(C(=O)C2CC2)CC1 (single isomer, unassigned; (+)) [Example 16A, (+)-1-(6-(3-((1′-(Cyclopropanecarbonyl)-2-ethyl-1′,2′,3′,6′-tetrahydro-[3,4′-bipyridin]-6-yl)amino)-2,3-dihydro-1H-inden-4-yl)pyridin-2-yl)-5-methoxy-1H-pyrazole-4-carboxylic acid]
